The values below come from patent publication US8143003B2, “Method for detecting oral squamous-cell carcinoma” (Fujifilm Corporation, priority 2008, dated 2012).

SMILES strings stand for the structures. Entries after “also recorded” stand apart in the source; their conditions may differ.

Assay type in all cases: cell-based
Data set [1] concerns MTNR1A gene expression in oral squamous-cell carcinoma cell lines (TOSCa-50, ZA, and NA). As to the kind of experiment: Recovery of MTNR1A gene expression by demethylation, examined by RT-PCR. As for the experimental part: (C) MTNR1A expression was recovered by a demethylation treatment performed on cells in which the gene was not expressed. The cells were treated using a 1 μM or 5 μM demethylating reagent 5-aza-dCyd for 5 days and/or using a deacetylation inhibitory agent TSA (100 ng/ml) for 12 hours. GAPDH was used as an internal control.
Specifically, single-stranded cDNA was synthesized from the RNA extracted from each cultured cell line using the SuperScript First-Strand Synthesis System (Invitrogen). Moreover, a glyceraldehyde-3-phosphate dehydrogenase (GAPDH) gene was used as a control.
In order to examine if the suppressed expression of the MTNR1A gene was due to DNA methylation, oral squamous-cell carcinoma cell lines (TOSCa-50, ZA, and NA) that had not expressed the MTNR1A gene were treated with a 1 μM or 5 μM demethylating reagent 5-aza-dCyd for 5 days and/or with a deacetylation inhibitory agent TSA (100 ng/ml) for 12 hours. RNAs were extracted from these cells, and MTNR1A gene expression was then examined by RT-PCR (FIG. 2c).

Data set [2] concerns CYP4V2 gene expression in cell lines with decreased expression. Nature of the data set: CYP4V2 gene expression after treatment with 5-aza-dCyd and/or TSA. As for the experimental part: (§1) (A) The expression status of a DKFZP564J gene and a CYP4V2 gene in cell lines in which the expression levels of the aforementioned genes had been decreased, which were treated with 5-aza-dCyd and/or TSA.

For data set [3], the system named is DKFZP564J gene expression in cell lines with decreased expression. As to the kind of experiment: DKFZP564J gene expression after treatment with 5-aza-dCyd and/or TSA. The protocol: as §1

In the case of `CC(/C=C/C(=O)NO)=C\[C@@H](C)C(=O)c1ccc(N(C)C)cc1` [TSA], the “MTNR1A gene expression (RT-PCR)” value in data set [1] (TSA 100 ng/ml for 12 hours, NA cells) is on record as “no differences in MTNR1A gene expression”.
With `Nc1ncn([C@H]2C[C@H](O)[C@@H](CO)O2)c(=O)n1` [5-aza-dCyd, 5-azadeoxycytidine], the CYP4V2 gene expression result in data set [2] is “gene expression was not recovered”. For the same compound, the DKFZP564J gene expression entry in data set [3] was “gene expression was not recovered”. Besides, in data set [1] (1 μM or 5 μM 5-aza-dCyd for 5 days, NA cells not expressing MTNR1A), the “MTNR1A gene expression (RT-PCR)” value is listed as “recovers its gene expression; also recorded: possible to recover the expression level of the MTNR1A gene”.
